# US6379930B1, “Stabilization of nucleic acid amplification cocktails” (Applied Gene Technologies, Inc., priority 1999, dated 2002)
# Assays:
# nucleic acids = conditions: Haq et al. 1997; cited from earlier work
# [1] = system: transcription mediated amplification reaction; conditions: Della-Latta et al. 1999; cited from earlier work
# ligase chain reaction = conditions: Notomi et al. 1998; cited from earlier work
# [2] = system: PCR of whole genomic mycobacterial DNA (Taq polymerase, primers Tb11 and Tb12); experiment: Reversible inhibition of PCR amplification by DNA binding ligand, product analyzed by gel electrophoresis; type: biochemical
# Experimental: AMT is purchased from Sigma Chem. Co., St. Louis, Mo. A stock solution of 5 mg/mL AMT is prepared in de-ionized water. An amplification cocktail is prepared containing 200 picomoles of primers Tb11 and Tb12 (Devallois et al., J. Clin. Microbiol., 35:2669-73 (1997)), 1.25 units of Taq polymerase/100 μL, 200 μM dNTPs and 0.05 mg/mL AMT in a Tris-EDTA buffer, pH 7. A corresponding solution without AMT is prepared as a control.
# Amplification is performed in Eppendorf tubes to which are added 0.5 μg of whole genomic mycobacterial DNA in 50 μl of buffer and either 1 μl or 10 μl of the amplification cocktail. Final volume is adjusted to 100 μl with the aqueous buffer solution (without AMT) so that the final concentrations of all PCR components, except AMT, is the same in all replicates. Controls received an amplification cocktail without AMT.
# PCR amplification is performed for 45 cycles (92° C.-56° C.-72° C.; denaturation, annealing, extension) and the product analyzed by gel electrophoresis. […]
structure (smiles),measurement,setting,value
CN1CCN(c2ccc3[nH]c(-c4ccc5[nH]c(-c6ccc(O)cc6)nc5c4)nc3c2)CC1 [Hoechst 33258],affinity for nucleic acid,nucleic acids,≤ 3.2e+08 M⁻¹
O=P(O)(O)O [phosphate ion],inhibitory concentration for a transcription mediated reaction,[1],about 0.7 mM
same,concentration inhibitory for a ligase chain reaction,ligase chain reaction,above 1.2 mM
"Cc1oc2c(C)c3oc(=O)cc(C)c3cc2c1CN [AMT, 4′-aminomethyltrioxsalen]",amplification product in PCR,"[2]; 0.5 μg/mL AMT, 45 cycles",detectable amplification product is produced
same,inhibition of the PCR,"[2]; 5 μg/mL AMT, 45 cycles",complete inhibition
same,amount of amplification product,[2]; lower concentrations of AMT: 5 ng/mL and 0.5 ng/mL,continues to increase
